# In patent US10532040B2, “Methods of treating cancer with herbacetin” (REGENTS OF THE UNIVERSITY OF MINNESOTA, priority 2011, dated 2020):
# Substitutions are numbered along the chain they refer to. Entries after “also recorded” stand apart in the source; their conditions may differ.
# Key:
# ODC = target: T1, ODC (Homo sapiens, UniProt P11926); experiment: pull-down assay with herbacetin-conjugated Sepharose 4B beads (recombinant ODC or HCT116 lysate); assay type: binding; settings: recombinant ODC protein or HCT116 cell lysate, Western blot
# T1 sequence (P11926 1-461): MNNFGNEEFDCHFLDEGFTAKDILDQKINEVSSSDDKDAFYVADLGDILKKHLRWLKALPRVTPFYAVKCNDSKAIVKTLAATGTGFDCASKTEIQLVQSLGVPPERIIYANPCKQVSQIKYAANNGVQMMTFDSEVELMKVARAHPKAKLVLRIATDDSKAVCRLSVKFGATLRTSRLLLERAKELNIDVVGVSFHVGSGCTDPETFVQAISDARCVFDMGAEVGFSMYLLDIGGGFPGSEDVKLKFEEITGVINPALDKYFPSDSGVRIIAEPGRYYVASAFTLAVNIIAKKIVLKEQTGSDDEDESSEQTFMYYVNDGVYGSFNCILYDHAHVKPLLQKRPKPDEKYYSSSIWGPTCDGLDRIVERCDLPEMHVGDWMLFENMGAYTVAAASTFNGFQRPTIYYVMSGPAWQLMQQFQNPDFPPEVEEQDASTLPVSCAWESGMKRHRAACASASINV
# Procedure: (§1) A recombinant human ODC protein (200 ng) or total cell lysates (500 μg) to were incubated with herbacetin Sepharose 4B (or Sepharose 4B only as a control) beads (50 μl, 50% slurry) in reaction buffer (50 mM Tris pH 7.5, 5 mM EDTA, 150 mM NaCl, 1 mM DTT, 0.01% NP40, 2 μg/mL bovine serum albumin). After incubation with gentle rocking overnight at 4° C., the beads were washed 5 times with buffer (50 mM Tris pH 7.5, 5 mM EDTA, 150 mM NaCl, 1 mM DTT, 0.01% NP40) and binding was determined by Western blotting.
# [1] = target: T2, ODC (WT, D44A, D243A, E384A) (Homo sapiens, UniProt P11926, D44A); experiment: pull-down assay with ectopically expressed ODC mutants in HCT116 cells; assay type: binding; settings: D44A mutant compared with D243A, E384A and WT
# T2 construct: expressed in transfected cells; host or cells: HCT116 colon cancer cells
# T2 sequence (P11926 1-461 D44A): T1 sequence (P11926 1-461) with D44A
# Procedure: as §1
# C57BL/6J-ApcMin+ mice = experiment: APCMin+ mouse colon cancer prevention pilot study, IP, 15 weeks; assay type: in vivo
# Procedure: The anti-cancer effect of herbacetin in vivo has also been shown. Herbacetin prevents colon cancer development in […]57BL/6J-ApcMin+ were divided into […] and injected IP with vehicle or 1 of 2 amounts of herbacetin in vehicle. The doses included 0, 0.4, or 2 mg/kg B.W. herbacetin injected IP (n=15 total, 5 per group; Table 1). APC-min mice were 5 weeks old at the beginning of the study and received herbacetin for 15 weeks 5 days/week.
# [2] = system: HCT116 colon cancer cells; experiment: anchorage independent HCT116 colon cancer cell growth; assay type: cell-based
# Procedure: (§2) FIGS. 3A-3H. Anticancer effect of herbacetin. (a) The effect of herbacetin on ODC activity in colon cancer cell lines was measured as the release of CO2 from L-[1-C^14] ornithine. […] (b) The effect of herbacetin and DFMO on the growth of colon cancer cells and (c) TPA-induced JB6 cell growth was compared. Cells were incubated for 72 h and growth was estimated using the MTS assay. (d) The effect of herbacetin on anchorage independent HCT116 colon cancer cell growth and (e) TPA-induced JB6 cell transformation was assessed. Cells were incubated for 2 weeks and then colonies were counted using a microscope and the Image-Pro PLUS (v.6) computer software program. The effect of herbacetin on AP-1 reporter activity in (f) HCT116 colon cancer cells and (g) TPA-induced AP-1 reporter activity in JB6 mouse epidermal cells was analyzed using the substrates included in the reporter assay system. Data are represented as means±S.D. of triplicate values from three independent experiments and the asterisk (*) indicates a significant (p<0.05) effect of herbacetin or DFMO compared to untreated or TPA-treated controls. (h) The effect of herbacetin on the phosphorylation of ERK1 and ERK2 in HCT116 colon cancer cells was determined by Western blotting. Similar results were observed from two independent experiments.
# [3] = system: activator protein-1 (AP-1); experiment: AP-1 reporter activity in HCT116 cells; assay type: cell-based; settings: HCT116 cells treated 48 h
# Procedure: as §2, with “Data are represented as means±S.D. of triplicate values from three independent experiments and the asterisk (*) indicates a significant (p<0.05) effect of herbacetin or DFMO compared to untreated or TPA-treated controls.” left out, “Similar results were observed from two independent experiments.” left out
# We determined whether herbacetin affected the reporter activity of the MAP kinase target transcription factor, activator protein-1 (AP-1), in HCT116 cells or JB6 cells stimulated with TPA. […] AP-1 reporter activity was then measured (FIG. 3f, g) and the activity was attenuated by herbacetin in colon cancer cells and in TPA-activated JB6 cells. […]
# [4] = system: HCT116 colon cancer cells; experiment: cDNA microarray of HCT116 colon cancer cells; assay type: cell-based; settings: HCT116, 1 or 2 days herbacetin
# Procedure: FIGS. 7A-7D. Profiling of gene expression in HCT116 colon cancer cells treated with herbacetin 1 or 2 days was assessed by microarray. […] (d) RT-PCR validation of differentially expressed genes.
# RNA samples from cells treated or not treated for 1 or 2 days with herbacetin were used. Data were analyzed using hierarchical clustering and the DAVID database as previously described (Sturn, A., Quackenbush, J. & Trajanoski, Z. Genesis: cluster analysis of microarray data. Bioinformatics 18, 207-208 (2002); Huang da, W., Sherman, B. T. & Lempicki, R. A. Systematic and integrative analysis of large gene lists using DAVID bioinformatics resources. Nat Protoc 4, 44-57 (2009)).
# [5] = system: activator protein-1, Cox2, NF-kappaB; experiment: promoter activities (preliminary data); assay type: cell-based
# [6] = 0.4 or 2 mg/kg BW IP, 15 weeks, 5 days/week
structure (smiles),measurement,setting,value
"O=c1c(O)c(-c2ccc(O)cc2)oc2c(O)c(O)cc(O)c12 [herbacetin, 3,5,7,8,4′-Pentahydroxyflavone]",binding to ODC,ODC,directly binds to ODC; also recorded: bind to ornithine decarboxylase (ODC)
same,binding affinity of ODC mutant with herbacetin,[1],most reduced binding affinity
same,colon tumor number,C57BL/6J-ApcMin+ mice; [6],fewer
same,colon tumor size,C57BL/6J-ApcMin+ mice; [6],smaller
same,body weight,C57BL/6J-ApcMin+ mice; APCMin+ mice,no effect
same,effectiveness relative to DFMO in suppressing anchorage independent growth,"[2]; HCT116, 2 weeks",at least 20 fold
same,potency relative to DFMO,"[2]; general statement, test not specified",20-50 times
same,AP-1 reporter activity,[3],attenuated
same,gene expression,[4],"significantly altered genes involved in proliferation, cell cycle, apoptosis and metabolic processes"
same,"promoter activities of activator protein-1, Cox2, NF-kappaB",[5],suppress promoter activities
